# Source: patent US4547503A, “1-Cyclopropyl-6-fluoro-1,4-dihydro-4-oxo-7-[4-(oxo-alkyl)-1-piperazinyl ]quinoline-3-carboxylic acids and their derivatives, and antibacterial agents containing them” (Bayer Aktiengesellschaft, priority 1982, dated 1985)
# Key:
# Test in all cases: MIC, agar dilution test; Denley multipoint inoculation procedure
# Type in all cases: cell-based
# [1] = test system: Klebsiella 57 USA; conditions: read-out: Minimum inhibitory concentration
# Excerpt: (§1) In the table below, the minimum inhibitory concentrations (MIC) with a variety of bacteria for some of the compounds according to the invention are given. |Minimum inhibitory concentrations in mcg/ml in the agar dilution test;
# [2] = test system: E. coli A 261; conditions: Escherichia coli, A261, read-out: Minimum inhibitory concentration
# Excerpt: as §1
# [3] = test system: E. coli Neumann; conditions: Escherichia coli, read-out: Minimum inhibitory concentration
# Excerpt: as §1
# [4] = test system: Staphylococcus Fk 422; conditions: FK422, read-out: Minimum inhibitory concentration
# Excerpt: as §1
# [5] = test system: Klebsiella 6179; conditions: read-out: Minimum inhibitory concentration
# Excerpt: as §1
# [6] = test system: Proteus morganii 932; conditions: Morganella morganii, read-out: Minimum inhibitory concentration
# Excerpt: as §1
# [7] = test system: Staphylococcus 1746; conditions: read-out: Minimum inhibitory concentration
# Excerpt: as §1
# [8] = test system: Klebsiella 8085; conditions: read-out: Minimum inhibitory concentration
# Excerpt: as §1
# [9] = test system: Providencia 12052; conditions: read-out: Minimum inhibitory concentration
# Excerpt: as §1
# [10] = test system: Staphylococcus 133; conditions: read-out: Minimum inhibitory concentration
# Excerpt: as §1
Compound,MIC [1],MIC [2],MIC [3],MIC [4],MIC [5],MIC [6],MIC [7],MIC [8],MIC [9],MIC [10]
"CC(=O)CN1CCN(c2cc3c(cc2F)c(=O)c(C(=O)O)cn3C2CC2)CC1 [Example 1, 1-cyclopropyl-6-fluoro-1,4-dihydro-4-oxo-7-[4-(2-oxopropyl)-1-piperazinyl]quinoline-3-carboxylic acid]",1 µg/mL,≤ 0.015 µg/mL,0.06 µg/mL,0.25 µg/mL,2 µg/mL,0.06 µg/mL,0.25 µg/mL,0.06 µg/mL,128 µg/mL,0.25 µg/mL
O=C(CN1CCN(c2cc3c(cc2F)c(=O)c(C(=O)O)cn3C2CC2)CC1)c1ccccc1 [Example 4],0.06 µg/mL,≤ 0.015 µg/mL,0.03 µg/mL,2 µg/mL,0.5 µg/mL,≤ 0.015 µg/mL,1 µg/mL,0.125 µg/mL,128 µg/mL,2 µg/mL
"CC(=O)CCN1CCN(c2cc3c(cc2F)c(=O)c(C(=O)O)cn3C2CC2)CC1 [Example 12, 1-cyclopropyl-6-fluoro-1,4-dihydro-4-oxo-7-[4-(3-oxobutyl)-1-piperazinyl]quinoline-3-carboxylic acid]",0.06 µg/mL,≤ 0.015 µg/mL,≤ 0.015 µg/mL,0.5 µg/mL,0.25 µg/mL,≤ 0.015 µg/mL,0.5 µg/mL,≤ 0.015 µg/mL,32 µg/mL,0.5 µg/mL

# Second part, the compound after the results:
MIC [1],MIC [2],MIC [3],MIC [4],MIC [5],MIC [6],MIC [7],MIC [8],MIC [9],MIC [10],Compound
,,,0.25 µg/mL,,,0.25 µg/mL,,,0.25 µg/mL,O=C(CN1CCN(c2cc3c(cc2F)c(=O)c(C(=O)O)cn3C2CC2)CC1)c1ccc(O)cc1O [Example 5]
0.03 µg/mL,≤ 0.015 µg/mL,0.015 µg/mL,1 µg/mL,0.25 µg/mL,≤ 0.015 µg/mL,1 µg/mL,0.03 µg/mL,64 µg/mL,1 µg/mL,O=C(CN1CCN(c2cc3c(cc2F)c(=O)c(C(=O)O)cn3C2CC2)CC1)c1ccc(F)cc1 [Example 8]
0.5 µg/mL,≤ 0.015 µg/mL,0.03 µg/mL,2 µg/mL,1 µg/mL,0.03 µg/mL,2 µg/mL,0.125 µg/mL,> 128 µg/mL,2 µg/mL,O=C(CN1CCN(c2cc3c(cc2F)c(=O)c(C(=O)O)cn3C2CC2)CC1)c1ccc(Cl)cc1 [Example 9]
